Read-outs that look alike come from different tables or passages of the source.
Columns and labels:
[1] = test system: tACE glycosylation; assay: Inhibition of tACE glycosylation in presence of tunicamycin (cellular ACE activity, Western blot); format: cell-based; details: CHO cells expressing tACE-wt, 5 μg/ml tunicamycin
Experimental: CHO cells expressing tACE-wt are grown to confluence in 6-well plates and induced overnight in 2% medium in the absence and presence of 5 μg/ml tunicamycin. Fresh medium is added and cells are grown in the absence and presence of 5 μg/ml tunicamycin. At 6, 8, 12, 16, 20 and 24 hours detergent-solubilised cell samples are collected. After separating the proteins on 10% SDS-PAGE they are immunodetected by Western blotting.
tACE-wt (SEQ ID NO: 1), tACEΔ36, tACEΔ36-g1, -g2, -g3, -g12, -g13, -g23, -g123 and -g1234 are immunodetected by Western blotting of cell lysates and harvested medium from transfected CHO cells. Proteins are separated on 10% SDS-PAGE and transferred to nitrocellulose membrane (Hybond-C, Amersham). The membrane is probed with a polyclonal rabbit anti-human tACE antibody. The membrane is developed using the ECL chemiluminescence kit (Amersham) and visualised on autoradiographic film, as per instructions.

[2] = biological target: T1, tACE (Homo sapiens, UniProt P12821); assay: Kinetic constants for tACE hydrolysis of hippuryl-L-histidyl-L-leucine (Hip-His-Leu); format: biochemical; details: cells expressing tACEΔ36NJ treated with the glucosidase I inhibitor
T1 construct: made in house; host or cells: CHO-K1 cells, stably transfected; soluble enzyme purified from the medium
Experimental: (§1) Soluble, recombinant tACE (wild-type […], ACEΔ36NJ (SEQ ID NO: 2) and ACE glycosylation mutants), is purified from conditioned media by affinity chromatography on a Sepharose-28-lisinopril affinity resin. The protein is quantitated by amino acid analysis and assayed for activity using the substrate hippuryl-L-histidyl-L-leucine , as described (Ehlers, MRE, Chen, Y—N, Riordan, JF (1991) Proc Natl Acad Sci USA 88, 1009-1013).
(§2) Assays are performed in 100 mM potassium phosphate pH 8.3 containing 300 mM NaCl. Initial velocities are calculated over a range of Hip-His-Leu concentrations (0.2-5.0 mM) under initial rate conditions and fit to the Michaelis-Menten equation. Km and Vmax values are determined by non-linear regression analysis.

[3] = cited from earlier work
[4] = test system: tACE; assay: Kinetic constants for tACE hydrolysis of hippuryl-L-histidyl-L-leucine (Hip-His-Leu); format: biochemical, human; details: hydrolysis of Hip-His-Leu
Experimental: as §1, §2

## tunicamycin
[1]
  Formation of mature, glycosylated tACE-wt (Western blot): partially inhibits
[1]; data not shown
  Cellular tACE-wt activity in treated versus untreated cells: approximately three-fold lower

## CCCCN1C[C@H](O)[C@@H](O)[C@H](O)[C@H]1CO [NB-DNJ, N-butyldeoxynojirimycin]
[2]
  Effect of treating the expressing cells on kinetic properties of the expressed enzymes: do not alter the kinetic properties

## CCOC(=O)[C@H](CCc1ccccc1)N[C@@H](C)C(=O)N1CCC[C@H]1C(=O)O [enalapril]
[3]; similar black patients
  Risk of hospitalization for heart failure: no such effect
[3]; white patients with left ventricular function
  Risk of hospitalization for heart failure: significant reduction

B1: tACE-wt: wild-type human testis ACE (SEQ ID NO: 1) retaining its 36-residue N-terminus, transmembrane region and juxtamembrane stalk, expressed in CHO cells (protein, listed as Homo sapiens)
chain: SQQVTVTHGTSSQATTSSQTTTHQATAHQTSAQSPNLVTDEAEASKFVEEYDRTSQVVWNEYAEANWNYNTNITTETSKILLQKNMQIANHTLKYGTQARKFDVNQLQNTTIKRIIKKVQDLERAALPAQELEEYNKILLDMETTYSVATVCHPNGSCLQLEPDLTNVMATSRKYEDLLWAWEGWRDKAGRAILQFYPKYVELINQAARLNGYVDAGDSWRSMYETPSLEQDLERLFQELQPLYLNLHAYVRRALHRHYGAQHINLEGPIPAHLLGNMWAQTWSNIYDLVVPFPSAPSMDTTEAMLKQGWTPRRMFKEADDFFTSLGLLPVPPEFWNKSMLEKPTDGREVVCHASAWDFYNGKDFRIKQCTTVNLEDLVVAHHEMGHIQYFMQYKDLPVALREGANPGFHEAIGDVLALSVSTPKHLHSLNLLSSEGGSDEHDINFLMKMALDKIAFIPFSYLVDQWRWRVFDGSITKENYNQEWWSLRLKYQGLCPPVPRTQGDFDPGAKFHIPSSVPYIRYFVSFIIQFQFHEALCQAAGHTGPLHKCDIYQSKEAGQRLATAMKLGFSRPWPEAMQLITGQPNMSASAMLSYFKPLLDWLRTENELHGEKLGWPQYNWTPNSARSEGPLPDSGRVSFLGLDLDAQQARVGQWLLLFLGIALLVATLGLSQRLFSIRHRSLHRHSHGPQFGSEVELRHS
[4]; 100 mM potassium phosphate pH 8.3, 300 mM NaCl
  Km: 2700 µM
[4]; calculated molecular mass of 100 kDa
  kcat: 193 s⁻¹
